# Tests used:
# [1] = Test of Pharmacokinetics in mice (blood concentration by bioassay); details: I.C.R mice, 40 mg/kg; for AUC (area under blood concentration curve): bioassay
# Method: The pharmacokinetics of the compounds of the present invention was determined using mice. […] Blood samples were collected from mice tails at 10 min., 20 min., 30 min., 45 min., 1 hour, 1.5 hours, 2 hours, 3 hours and 4 hours after the administration. […] Blood samples were collected from mice tails in the same manner described above.
# The concentrations of each compound in blood were measured using bioassay methods: Agar plate was prepared with agar medium containing 1% Streptococcus Pyogenes 77A culture solution, and the blood samples and the diluted standards (each of which were obtained by dilution of the already-known concentration by two times) were added to wells formed on the plates. The plate was stored at 4° C. for 1 hour to is allow the sample to spread, and incubated at 37° C. for 18 hours. Diameters of each inhibition-circle were measured and then the concentration of the compounds in blood was calculated, based on the calibration curve obtained from the diluted standards.
# I.C.R. mice = assay: Acute Toxicity Test, oral, mice; assay type: in vivo; details: observed 7 days
# Method: The acute toxicity of the compound of Example 1 was tested using several groups of I.C.R. mice each of 10 mice. 500 mg/kg, 1,000 mg/kg, and 2,000 mg/kg doses of the compound of Example 1 were orally administered. […] Thus, LD50 was placed at a level higher than 2,000 mg/kg. The compound of Example 1 is thus a largely non-toxic antibiotic.
# In addition, acute toxicity of the compounds of Examples 10 and 17 was tested using two groups of I.C.R. mice each of 5 mice/2 groups. 1,000 mg/kg, 2,000 mg/kg, and 3,000 mg/kg doses of the compounds of Examples 10 to 17 were orally administered. […] Thus, LD50 was placed at a level higher than 3,000 mg/kg. Therefore, the compounds of Examples 10 to and 17 are non-toxic antibiotics.
# [2] = Chemical Stability Test (HPLC purity on storage); assay type: physicochemical
# Method: 500 mg of the compound prepared in Example 10 was charged into a glass bottle, and HPLC purities of the compound were measured at the condition of 40° C. and a humidity of 75%, at 1 week, 2 week, 3 week, and 1 month. The HPLC purities were obtained by comparing each of the measured HPLC amounts with the initial HPLC amount.
# [3] = test system: Enterobacter cloacae ATCC 13880; assay: Minimum Inhibitory Concentration (MIC); assay type: cell-based
# Text: (§1) The metabolite has a wide spectrum of antibacterial activities against Gram-negative and Gram-positive bacteria and excellent antibacterial activities against resistant bacteria such as methicillin-resistant Staphylococcus aurus (MRSA) and quinolone-resistant strains (QRS), as in WO2006/025634 by the present inventors.
# [4] = test system: Enterobacter cloacae P 99(2)3; assay: Minimum Inhibitory Concentration (MIC); assay type: cell-based
# Text: as §1
# GBBS ATCC 12386 = assay: Minimum Inhibitory Concentration (MIC); assay type: cell-based
# Text: as §1
# Klebsiella oxytoca 1082 = assay: Minimum Inhibitory Concentration (MIC); assay type: cell-based; details: strain 1082
# Text: as §1
# [5] = test system: Klebsiella pneumoniae ATCC 13883; assay: Minimum Inhibitory Concentration (MIC); assay type: cell-based
# Text: as §1
# [6] = test system: Moraxella catarrhalis AMP S(3); assay: Minimum Inhibitory Concentration (MIC); assay type: cell-based; details: 3 strains
# Text: as §1
# [7] = test system: Salmonella typhimurium 179; assay: Minimum Inhibitory Concentration (MIC); assay type: cell-based; details: strain 179
# Text: as §1
# [8] = test system: Staphylococcus aureus (2); assay: Minimum Inhibitory Concentration (MIC); assay type: cell-based; details: 2 strains
# Text: as §1
# [9] = test system: Staphylococcus aureus ATCC 29213; assay: Minimum Inhibitory Concentration (MIC); assay type: cell-based
# Text: as §1
# [10] = test system: Streptococcus ATCC 496 (4); assay: Minimum Inhibitory Concentration (MIC); assay type: cell-based
# Text: as §1
# [11] = test system: Streptococcus faecium (1); assay: Minimum Inhibitory Concentration (MIC); assay type: cell-based; details: 1 strain
# Text: as §1
# [12] = test system: Streptococcus pneumoniae Pen. R (4); assay: Minimum Inhibitory Concentration (MIC); assay type: cell-based; details: 4 strains
# Text: as §1
# [13] = test system: Streptococcus pneumoniae Pen. S (4); assay: Minimum Inhibitory Concentration (MIC); assay type: cell-based; details: 4 strains
# Text: as §1
# Escherichia coli (4) = assay: Minimum Inhibitory Concentration (MIC); assay type: cell-based; parameters: unit not given here; details: 4 strains
# Text: as §1
# [14] = test system: Klebsiella pneumoniae (4); assay: Minimum Inhibitory Concentration (MIC); assay type: cell-based; parameters: unit not given here; details: 4 strains
# Text: as §1
# [15] = test system: Moraxella catarrhalis AMP R(3); assay: Minimum Inhibitory Concentration (MIC); assay type: cell-based; parameters: unit not given here; details: 3 strains
# Text: as §1
# [16] = test system: Staphylococcus aureus (10), MRSA; assay: Minimum Inhibitory Concentration (MIC); assay type: cell-based; parameters: unit not given here; details: 10 strains
# Text: as §1
# [17] = test system: Staphylococcus aureus (5), QRS; assay: Minimum Inhibitory Concentration (MIC); assay type: cell-based; parameters: unit not given here; details: 5 strains
# Text: as §1
# [18] = test system: Streptococcus Levo. R (4); assay: Minimum Inhibitory Concentration (MIC); assay type: cell-based; parameters: unit not given here; details: 4 strains
# Text: as §1
# [19] = test system: Streptococcus Levo. S (4); assay: Minimum Inhibitory Concentration (MIC); assay type: cell-based; parameters: unit not given here; details: 4 strains
# Text: as §1
# [20] = test system: Streptococcus pyogenes (2); assay: Minimum Inhibitory Concentration (MIC); assay type: cell-based; parameters: unit not given here; details: 2 strains
# Text: as §1
# [21] = oral, 500, 1,000 and 2,000 mg/kg
# [22] = oral, 1,000, 2,000 and 3,000 mg/kg
compound,measurement,setting,value
"1-(isopropyloxycarbonyloxy)ethyl(1R,5S,6S)-2-[(1-(4-fluorobenzyl)azetidin-3-yl)thio]-6-[(R)-1-hydroxyethyl]-1-methyl-carbapen-2-em-3-carboxylate [Example 2]",ratio of oral/subcutaneous AUCs,[1],about 54%
same,Cmax (maximum blood concentration),[1]; PO,72.8 µg/mL
same,T1/2 (half time of blood concentration),[1]; PO,1.15 h
same,Tmax (time at the point of maximum blood concentration),[1]; PO,1.00 h
same,AUC (area under blood concentration curve),[1]; PO,94800 ng·h/mL
same,Cmax (maximum blood concentration),[1]; SC,66.4 µg/mL
same,T1/2 (half time of blood concentration),[1]; SC,3.92 h
same,Tmax (time at the point of maximum blood concentration),[1]; SC,0.75 h
same,AUC (area under blood concentration curve),[1]; SC,174000 ng·h/mL
"C[C@@H](O)[C@H]1C(=O)N2C(C(=O)OCOC(=O)C(C)(C)C)=C(SC3CN(Cc4ccc(F)cc4)C3)[C@H](C)[C@H]12 [Example 1, pivaloyloxymethyl(1R,5S,6S)-2-[(1-(4-fluorobenzyl)azetidin-3-yl)thio]-6-[(R)-1-hydroxyethyl]-1-methyl-carbapen-2-em-3-carboxylate]",LD50,I.C.R. mice; [21],"higher than 2,000 mg/kg"
same,body temperature change and weight change,I.C.R. mice; [21],no distinct body temperature change nor weight loss were observed
same,death,I.C.R. mice; [21],no mice died
same,ratio of oral/subcutaneous AUCs,[1],about 52%
same,Cmax (maximum blood concentration),[1]; PO,88.1 µg/mL
same,T1/2 (half time of blood concentration),[1]; PO,0.931 h
same,Tmax (time at the point of maximum blood concentration),[1]; PO,0.38 h
same,AUC (area under blood concentration curve),[1]; PO,117000 ng·h/mL
same,Cmax (maximum blood concentration),[1]; SC,97.9 µg/mL
same,T1/2 (half time of blood concentration),[1]; SC,6.28 h
same,Tmax (time at the point of maximum blood concentration),[1]; SC,1.76 h
same,AUC (area under blood concentration curve),[1]; SC,226000 ng·h/mL
"CC(OC(=O)OC1CCCCC1)OC(=O)C1=C(SC2CN(Cc3ccc(F)cc3)C2)[C@H](C)[C@@H]2[C@@H]([C@@H](C)O)C(=O)N12 (stereo partly drawn) [Example 3, 1-(cyclohexyloxycarbonyloxy)ethyl(1R,5S,6S)-2-[(1-(4-fluorobenzyl)azetidin-3-yl)thio]-6-[(R)-1-hydroxyethyl]-1-methyl-carbapen-2-em-3-carboxylate]",ratio of oral/subcutaneous AUCs,[1],about 113%
same,Cmax (maximum blood concentration),[1]; PO,39.0 µg/mL
same,T1/2 (half time of blood concentration),[1]; PO,1.43 h
same,Tmax (time at the point of maximum blood concentration),[1]; PO,0.59 h
same,AUC (area under blood concentration curve),[1]; PO,64500 ng·h/mL
same,Cmax (maximum blood concentration),[1]; SC,16.2 µg/mL
same,T1/2 (half time of blood concentration),[1]; SC,1.05 h
same,Tmax (time at the point of maximum blood concentration),[1]; SC,2.50 h
same,AUC (area under blood concentration curve),[1]; SC,56900 ng·h/mL
"C[C@@H](O)[C@H]1C(=O)N2C(C(=O)OCOC(=O)C(C)(C)C)=C(SC3CN(Cc4ccc(F)cc4)C3)[C@H](C)[C@H]12.O=P(O)(O)O [Example 10, Phosphoric Acid Salt of pivaloyloxymethyl(1R,5S,6S)-2-[(1-(4-fluorobenzyl)azetidin-3-yl)thio]-6-[(R)-1-hydroxyethyl]-1-methyl-carbapen-2-em-3-carboxylate]",HPLC Purity,"[2]; 40° C., humidity 75%, 1 month",99.69%
same,HPLC Purity,"[2]; 40° C., humidity 75%, 1 week",99.85%
same,HPLC Purity,"[2]; 40° C., humidity 75%, 2 week",99.78%
same,HPLC Purity,"[2]; 40° C., humidity 75%, 3 week",99.74%
same,HPLC Purity,[2]; Initial,99.83%
same,body temperature change and weight change,I.C.R. mice; [22],no body distinct temperature change nor weight loss were observed
same,death,I.C.R. mice; [22],no mice died
"C[C@@H](O)[C@H]1C(=O)N2C(C(=O)OCOC(=O)C(C)(C)C)=C(SC3CN(Cc4ccc(F)cc4)C3)[C@H](C)[C@H]12.O=C(O)/C=C/C(=O)O [Example 17, Fumaric Acid Salt of pivaloyloxymethyl(1R,5S,6S)-2-[(1-(4-fluorobenzyl)azetidin-3-yl)thio]-6-[(R)-1-hydroxyethyl]-1-methyl-carbapen-2-em-3-carboxylate]",body temperature change and weight change,I.C.R. mice; [22],no body distinct temperature change nor weight loss were observed
same,death,I.C.R. mice; [22],no mice died
"C[C@@H](O)[C@H]1C(=O)N2C(C(=O)O)=C(SC3CN(Cc4ccc(F)cc4)C3)[C@H](C)[C@H]12 [Preparation Example 4, (1R,5S,6S)-2-[(1-(4-fluorobenzyl)azetidin-3-yl)thio]-6-[(R)-1-hydroxyethyl]-1-methyl-carbapen-2-em-3-carboxylic acid]",MIC,[3],2 µg/mL
same,MIC,[4],0.049 µg/mL
same,MIC,GBBS ATCC 12386,0.03 µg/mL
same,MIC,Klebsiella oxytoca 1082,0.049 µg/mL
same,MIC,[5],0.122 µg/mL
same,MIC,[6],< 0.008 µg/mL
same,MIC,[7],0.049 µg/mL
same,MIC,[8],0.002 µg/mL
same,MIC,[9],0.015 µg/mL
same,MIC,[10],0.03 µg/mL
same,MIC,[11],1.56 µg/mL
same,MIC,[12],0.12 µg/mL
same,MIC,[13],< 0.008 µg/mL
same,MIC,Escherichia coli (4),0.025-0.098
same,MIC,[14],0.06-0.25
same,MIC,[15],0.03-0.12
same,MIC,[16],0.025-3.125
same,MIC,[17],0.049-0.391
same,MIC,[18],0.006-0.12
same,MIC,[19],<0.008-0.25
same,MIC,[20],0.013-0.025
same,Cmax (maximum blood concentration),[1]; PO,3.97 µg/mL
same,T1/2 (half time of blood concentration),[1]; PO,1.32 h
same,Tmax (time at the point of maximum blood concentration),[1]; PO,0.56 h
same,AUC (area under blood concentration curve),[1]; PO,8280 ng·h/mL
same,Cmax (maximum blood concentration),[1]; SC,68.5 µg/mL
same,T1/2 (half time of blood concentration),[1]; SC,0.76 h
same,Tmax (time at the point of maximum blood concentration),[1]; SC,0.38 h
same,AUC (area under blood concentration curve),[1]; SC,83240 ng·h/mL
